Experimental data: ChEMBL document CHEMBL5096216, “Rational Design, Synthesis, and Biological Evaluation of Novel S1PR2 Antagonists for Reversing 5-FU-Resistance in Colorectal Cancer” (J Med Chem, 2022)
Activity calls are given as the source filed them. The rule behind the calls is not given here.

Assays:
[1] = target: Sphingosine 1-phosphate receptor 3 (Homo sapiens, UniProt Q99500); assay: Binding affinity to S1PR3 (unknown origin) assessed as dissociation constant by surface plasmon resonance analysis
[2] = target: T1, Sphingosine 1-phosphate receptor 4 (Homo sapiens, UniProt O95977); assay: Binding affinity to S1PR4 (unknown origin) assessed as dissociation constant by surface plasmon resonance analysis
T1 sequence (O95977 whole entry): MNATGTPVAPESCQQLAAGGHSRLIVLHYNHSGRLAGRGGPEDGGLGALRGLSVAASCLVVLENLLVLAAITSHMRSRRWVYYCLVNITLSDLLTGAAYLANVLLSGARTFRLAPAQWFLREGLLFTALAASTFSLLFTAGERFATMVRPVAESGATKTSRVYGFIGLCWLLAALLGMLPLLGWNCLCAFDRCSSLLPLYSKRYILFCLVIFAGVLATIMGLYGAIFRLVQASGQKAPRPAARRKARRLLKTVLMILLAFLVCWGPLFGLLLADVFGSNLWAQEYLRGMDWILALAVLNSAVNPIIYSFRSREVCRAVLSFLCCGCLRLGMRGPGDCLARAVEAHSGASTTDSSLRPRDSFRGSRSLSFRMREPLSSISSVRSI

[3] = target: Sphingosine 1-phosphate receptor 5 (Homo sapiens, UniProt Q9H228); assay: Binding affinity to S1PR5 (unknown origin) assessed as dissociation constant by surface plasmon resonance analysis
[4] = Metabolic stability in rat plasma assessed as half life at 1 mg/ml incubated for 48 hrs by HPLC analysis; assay type: ADME, cell-free
[5] = Metabolic stability in rat liver homogenate assessed as half life at 1 mg/ml incubated for 48 hrs by HPLC analysis; assay type: ADME, tissue-based
[6] = Metabolic stability in human plasma assessed as compound remaining at 1 mg/ml measured after 48 hrs by HPLC analysis; assay type: ADME, cell-free; settings: read-out: Stability
[7] = Metabolic stability in rat plasma assessed as compound remaining at 1 mg/ml measured after 48 hrs by HPLC analysis; assay type: ADME, cell-free; settings: read-out: Stability
[8] = system: HCT-116; assay: Antiproliferative activity against human HCT-116 cells overexpressing DPD assessed as reduction in cell viability incubated for 48 hrs by MTT assay; assay type: functional, cell-based; settings: HCT-116, 48 h
[9] = system: SW620/5-FU; assay: Reversal of 5-FU resistance in human SW620/5-FU cells assessed as reduction in cell viability incubated for 48 hrs in presence of 5-FU by MTT assay; assay type: functional, cell-based
[10] = system: HT-29; assay: Reversal of 5-FU resistance in human HT-29 cells assessed as reduction in cell viability incubated for 48 hrs in presence of 5-FU by MTT assay; assay type: functional, cell-based; settings: HT-29, 48 h
[11] = system: NCM460; assay: Cytotoxicity against human NCM460 cells assessed as reduction in cell viability incubated for 48 hrs in presence of 5-FU by MTT assay; assay type: functional, cell-based; settings: NCM460, 48 h
[12] = system: HT-29; assay: Downregulation of JMJD3 expression in 5-FU resistant human HT-29 cells incubated for 12 hrs by Western blot analysis; assay type: functional, cell-based; settings: dose 2.5-20 µM, DDE = dose-dependent effect
[13] = system: HCT-116; assay: Reversal of 5-FU resistance in human HCT-116 cells overexpressing DPD assessed as fold reduction in 5-Fluorouracil IC50 at 5 uM incubated for 48 hrs; assay type: functional
[14] = system: SW620/5-FU; assay: Reversal of 5-FU resistance in human SW620/5-FU cells assessed as fold reduction in 5-Fluorouracil IC50 at 2 uM incubated for 48 hrs; assay type: functional
[15] = Induction of intracellular 5-FU accumulation in human SW620/5-FU cells measured after 6 hrs by HPLC analysis (reference value: 4.3 microg/ml); assay type: functional
[16] = system: SW620/5-FU; assay: Induction of apoptosis in human SW620/5-FU cells assessed as viable cells at 20 uM incubated for 24 hrs by Annexin-V/PI staining based flow cytometry assay (reference value: 94.3%); assay type: functional; settings: read-out: Activity
[17] = system: SW620/5-FU; assay: Induction of apoptosis in human SW620/5-FU cells assessed as early apoptotic cells at 20 uM incubated for 24 hrs by Annexin-V/PI staining based flow cytometry assay (reference value: 2.73%); assay type: functional
[18] = system: SW620/5-FU; assay: Induction of apoptosis in human SW620/5-FU cells assessed as viable cells at 10 uM incubated for 24 hrs in presence of 5-FU by Annexin-V/PI staining based flow cytometry assay (reference value: 94.3%); assay type: functional; settings: read-out: Activity
[19] = system: SW620/5-FU; assay: Induction of apoptosis in human SW620/5-FU cells assessed as necrotic cells at 10 uM incubated for 24 hrs in presence of 5-FU by Annexin-V/PI staining based flow cytometry assay (reference value: 0%); assay type: functional
[20] = system: SW620/5-FU; assay: Induction of apoptosis in human SW620/5-FU cells assessed as viable cells at 20 uM incubated for 24 hrs in presence of 5-FU by Annexin-V/PI staining based flow cytometry assay (reference value: 94.3%); assay type: functional; settings: read-out: Activity
[21] = system: SW620/5-FU; assay: Induction of apoptosis in human SW620/5-FU cells assessed as late apoptotic cells at 20 uM incubated for 24 hrs in presence of 5-FU by Annexin-V/PI staining based flow cytometry assay (reference value: 2.97%); assay type: functional
[22] = system: SW620/5-FU; assay: Antitumor activity against human SW620/5-FU cells xenografted in nude mouse assessed as tumor volume at 5 mg/kg/day, iv measured on day 1 in presence of 5-FU (reference value: 105 +/- 14 mm3); assay type: functional; settings: time 1 day
[23] = system: SW620/5-FU; assay: Antitumor activity against human SW620/5-FU cells xenografted in nude mouse assessed as tumor volume at 10 mg/kg/day, iv measured on day 1 in presence of 5-FU (reference value: 105 +/- 14 mm3); assay type: functional; settings: time 1 day
[24] = system: SW620/5-FU; assay: Antitumor activity against human SW620/5-FU cells xenografted in nude mouse assessed as tumor wight at 5 mg/kg/day, iv in presence of 5-FU (reference value: 1.3 +/-0.6 g); assay type: functional
[25] = system: SW620/5-FU; assay: Antitumor activity against human SW620/5-FU cells xenografted in nude mouse assessed as tumor wight at 10 mg/kg/day, iv in presence of 5-FU (reference value: 1.3 +/- 0.6 g); assay type: functional
[26] = system: SW620/5-FU; assay: Antitumor activity against human SW620/5-FU cells xenografted in nude mouse assessed as tumor growth inhibition at 1 mg/kg/day, iv in presence of 5-FU; assay type: functional; settings: read-out: TGI
[27] = Toxicity in nude mouse xenografted with human SW620/5-FU cells assessed as morphological changes in liver at 1 to 10 mg/kg/day, iv by hematoxylin-eosin staining based analysis; assay type: organism-based; settings: in vivo, dose 1-10 mg/kg/day
[28] = Toxicity in nude mouse xenografted with human SW620/5-FU cells assessed as morphological changes in spleen at 1 to 10 mg/kg/day, iv by hematoxylin-eosin staining based analysis; assay type: organism-based; settings: in vivo, dose 1-10 mg/kg/day
[29] = Toxicity in nude mouse xenografted with human SW620/5-FU cells assessed as morphological changes in kidney at 1 to 10 mg/kg/day, iv by hematoxylin-eosin staining based analysis; assay type: organism-based; settings: in vivo, dose 1-10 mg/kg/day
[30] = system: Mus musculus; assay: In vivo inhibition of tumor DPD expression in human SW620/5-FU cells xenografted in nude mouse at 1 to 10 mg/kg/day by Western blot analysis; assay type: functional, organism-based; settings: dose 1-10 mg/kg/day
[31] = system: HCT-116; assay: cells; settings: Homo sapiens, HCT-116, 48 h
Description: Reversal of 5-FU resistance in human HCT-116 cells overexpressing DPD assessed as reduction in 5-Fluorouracil IC50 at 2 uM incubated for 48 hrs (Rvb = 1836.66 +/- 87.95 %)

Sphingosine 1-phosphate receptor 3, sequence (Q99500 whole entry): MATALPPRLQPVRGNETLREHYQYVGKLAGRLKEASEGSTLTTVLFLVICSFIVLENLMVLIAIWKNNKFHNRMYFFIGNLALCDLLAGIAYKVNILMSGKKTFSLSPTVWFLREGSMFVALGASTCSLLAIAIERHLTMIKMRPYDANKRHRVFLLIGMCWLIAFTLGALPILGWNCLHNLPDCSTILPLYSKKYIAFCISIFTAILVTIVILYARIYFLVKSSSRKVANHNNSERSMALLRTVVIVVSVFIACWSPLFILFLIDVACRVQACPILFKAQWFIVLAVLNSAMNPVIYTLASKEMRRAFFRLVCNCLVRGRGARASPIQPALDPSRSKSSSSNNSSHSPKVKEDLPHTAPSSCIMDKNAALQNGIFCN
Sphingosine 1-phosphate receptor 5, sequence (Q9H228 whole entry): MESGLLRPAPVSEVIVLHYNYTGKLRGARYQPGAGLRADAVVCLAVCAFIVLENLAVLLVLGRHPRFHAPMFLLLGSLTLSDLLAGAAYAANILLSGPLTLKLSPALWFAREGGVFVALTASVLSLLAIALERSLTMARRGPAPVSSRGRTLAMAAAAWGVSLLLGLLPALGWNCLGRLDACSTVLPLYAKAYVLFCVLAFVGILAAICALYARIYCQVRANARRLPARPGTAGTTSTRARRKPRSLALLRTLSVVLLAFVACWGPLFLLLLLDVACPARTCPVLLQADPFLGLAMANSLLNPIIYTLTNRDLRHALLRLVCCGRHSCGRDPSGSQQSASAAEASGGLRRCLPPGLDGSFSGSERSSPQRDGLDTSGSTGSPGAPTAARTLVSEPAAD

In the case of CCC(CC)CN1CCN(C(=O)Nc2cc(Oc3ccc(F)cc3)cc(Oc3ccc(C(=O)NC)cc3)c2)CC1, the Kd [1] is reported as over 100 nM, the Kd [2] is reported as over 100 nM and the Kd [3] is reported as over 100 nM. For the same compound, the half-life at 1 mg/ml [4] was over 48 h, the half-life at 1 mg/ml [5] was over 48 h and the remaining at 48 h, 1 mg/ml [6] was 96.4%. For the same compound, the remaining at 48 h, 1 mg/ml [7] was 93%, the IC50 [8] was over 100000 nM and the IC50 [9] was 1990 nM. The IC50 [10] was 2510 nM, the IC50 [11] was over 100000 nM and the Activity [12] was “Dde”. The “fold change (FC)” value [13] was 41, the “fold change (FC)” value [14] was 42 and the Activity [15] was 12.2 µg/mL. It also gave a viability at 20 µM [16] of 92.1%, an Activity [17] of 3.76% and a viability at 10 µM [18] of 87.7%. It also gave an Activity [19] of 0.17%, a viability at 20 µM [20] of 64.2% and an Activity [21] of 7.14%. The Activity [22] was 103 mm3, the Activity [23] was 104 mm3 and the Activity [24] was 0.5 g. The Activity [25] was 0.3 g, the inhibition in vivo at 1 mg/kg/day [26] was 49.5% and the Activity [27] was “Non-Toxic”. For the same compound, the Activity [28] was “Non-Toxic”, the Activity [29] was “Non-Toxic” and the inhibition [30] was “Active”. It also gave an IC50 [31] of 56400 nM.
